Assay results from PubChem BioAssay (NCI).
Values joined by “and” are separate entries in the source; they are usually repeats but may differ in a detail not shown here. Equal entries are not always repeated.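 Compound exposure: 48 hours, 5 concentrations, 96-well plates. GI50: concentration for 50% inhibition of growth. TGI: concentration producing complete growth inhibition.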

How the values were obtained:
Test in all cases: NCI-60 cell line screen, 48 h
A498 renal = tested on: A498 renal
A549 NSCLC = tested on: A549 NSCLC
LOX IMVI melanoma = tested on: LOX IMVI melanoma
NCI-H226 lung = tested on: NCI-H226 lung
OVCAR-4 ovarian = tested on: OVCAR-4 ovarian
SK-MEL-28 melanoma = tested on: SK-MEL-28 melanoma
SNB-19 CNS = tested on: SNB-19 CNS
U251 CNS = tested on: U251 CNS
UACC-62 melanoma = tested on: UACC-62 melanoma
UO-31 renal = tested on: UO-31 renal

SMILES | TGI (A498 renal) | TGI (A549 NSCLC) | TGI (LOX IMVI melanoma) | TGI (NCI-H226 lung) | TGI (OVCAR-4 ovarian) | TGI (SK-MEL-28 melanoma) | TGI (SNB-19 CNS) | TGI (U251 CNS) | TGI (UACC-62 melanoma) | TGI (UO-31 renal) | GI50 (A498 renal) | GI50 (A549 NSCLC) | GI50 (LOX IMVI melanoma) | GI50 (NCI-H226 lung) | GI50 (OVCAR-4 ovarian) | GI50 (SK-MEL-28 melanoma) | GI50 (SNB-19 CNS) | GI50 (U251 CNS) | GI50 (UACC-62 melanoma) | GI50 (UO-31 renal)
NS(=O)(=O)c1ccc(Nc2c3ccccc3nc3c(C(=O)N4CCN(CCO)CC4)cccc23)cc1 | > 100 µM | > 100 µM | > 100 µM | > 100 µM | > 100 µM | > 100 µM | > 100 µM | > 100 µM | > 100 µM | > 100 µM |  |  |  |  |  |  |  |  |  | 
COc1cc(/C=C/c2cc(/C=C/c3ccc(O)c(OC)c3)n(C(=O)Nc3ccccc3Cl)n2)ccc1O | 2.04 µM | 2.08 µM | 1.39 µM | 2.74 µM | 9.09 µM | 4.11 µM | 4.23 µM | 1.51 µM | 2.5 µM | 1.17 µM | 0.487 µM | 0.336 µM | 0.193 µM | 0.617 µM | 0.722 µM | 0.519 µM | 0.743 µM | 0.384 µM | 0.425 µM | 0.159 µM
Cn1c2c(c3ccccc31)CCN(CCCCN1CCN(c3ccccc3)CC1)C2=O | > 100 µM | > 100 µM | 32.1 µM | > 87 µM | > 100 µM | > 61.8 µM | > 100 µM | > 84.2 µM | > 68.7 µM | > 80.9 µM |  |  |  |  |  |  |  |  |  | 
CC(C)(C)c1cc(NC(=O)Nc2ccc(-c3cn4c(n3)sc3cc(OCCN5CCOCC5)ccc34)cc2)no1 | 28.4 µM and 11 µM and > 10 µM | 19.5 µM and 13.8 µM and > 10 µM | 30.1 µM and 8.21 µM and > 10 µM | 18.6 µM and 5.24 µM and > 10 µM | 15.8 µM and 5.96 µM and > 10 µM | 17.5 µM and 12 µM and > 10 µM | 20.3 µM and 17.1 µM and > 10 µM | 12.9 µM and 5.25 µM and > 10 µM | 15.2 µM and 9.53 µM | 18.3 µM and 4.57 µM and > 10 µM | 13.9 µM and 2.13 µM and > 10 µM | 3.93 µM and 1.48 µM and 6.89 µM | 5.86 µM and 0.928 µM and 5.07 µM | 3.38 µM and 0.921 µM and 4.29 µM | 4.61 µM and 1.38 µM and 3.38 µM | 4.23 µM and 2.04 µM and > 10 µM | 3.46 µM and 1.71 µM and 4.26 µM | 0.941 µM and 0.511 µM and 2.72 µM | 1.34 µM and 1.4 µM | 3.62 µM and 0.45 µM and 3.93 µM
O=C(O)c1cc(=O)cc(C(=O)O)o1 | > 100 µM | > 100 µM | > 100 µM | > 100 µM | > 100 µM | > 100 µM | > 100 µM | > 100 µM | > 100 µM | > 100 µM | > 100 µM | > 100 µM | > 100 µM | > 100 µM | > 100 µM | > 100 µM | > 100 µM | > 100 µM | > 100 µM | > 100 µM
COc1ccc(CCN(CC(=O)N(CC(N)=O)C2CCC[C@@H]2OCc2ccccc2)C(=O)CN(C(=O)CN(CCc2ccc(Cl)cc2)C(=O)CN(C(=O)CN(C)Cc2ccccc2F)[C@H](C)C2CCCCC2)[C@H](C)C2CCCCC2)cc1OC (stereo not given in full) | > 50 µM | > 50 µM | 2.77 µM | 41.7 µM | > 50 µM | > 50 µM | > 50 µM | 17.7 µM | > 50 µM | > 50 µM | 1.84 µM | 1.59 µM | 1.08 µM | 1.86 µM | 1.95 µM | 1.89 µM | 1.64 µM | 1.98 µM | 1.42 µM | 2.2 µM
COC(=O)c1cc2oc(/C=C3/SC(=S)N(N)C3=O)cc2n1Cc1ccccc1 | 6.48 µM | 33.1 µM | 16 µM | 26.8 µM | 42.8 µM | > 30.1 µM | 35.2 µM | 14 µM | 36.1 µM | 10.6 µM | 2.16 µM | 5.12 µM | 2.61 µM | 13.5 µM | 4.68 µM | 7.48 µM | 5.79 µM | 3.97 µM | 10.6 µM | 3.6 µM
CN(C)CCCSc1ccccc1NC1=C(Cl)C(=O)C(Nc2ccccc2SCCCN(C)C)=C(Cl)C1=O | 20.6 µM | 17 µM | 2.88 µM | 4.32 µM | 2.56 µM | 3.12 µM | 11.4 µM | 3.69 µM | 3.51 µM | 2.79 µM | 8.36 µM | 5.43 µM | 1.39 µM | 2.21 µM | 1.29 µM | 1.67 µM | 3.42 µM | 2.12 µM | 1.81 µM | 1.47 µM
CC1(C)N=C(N)N=C(N)N1c1ccc(Cl)cc1 | > 100 µM | > 100 µM | > 100 µM | > 100 µM | > 100 µM | > 100 µM | > 100 µM | > 100 µM | > 100 µM | > 100 µM | > 100 µM | 1.25 µM | 2.85 µM | > 100 µM | 14.9 µM | 53.5 µM | 16.7 µM | 1.19 µM | 4.09 µM | > 100 µM
CSc1nc2nn(Cc3ccccc3)cc2c(=O)[nH]1 | > 100 µM | > 100 µM | > 100 µM | > 100 µM | > 100 µM | > 100 µM | > 100 µM | > 100 µM | > 100 µM | > 100 µM |  |  |  |  |  |  |  |  |  | 
C=CC(=O)N1C[C@@H]2CCOc3c(Cl)c(-c4c(O)cccc4F)c(F)c4ncnc(c34)N2C[C@H]1C | 28.1 µM | 34.7 µM | 24.4 µM | 45.2 µM | 72 µM | 27.1 µM | 28 µM | 36.2 µM | 18.8 µM | 25.3 µM | 13.6 µM | 15.3 µM | 12 µM | 13.1 µM | 9.18 µM | 13.5 µM | 14.6 µM | 15 µM | 4.17 µM | 12.3 µM
CCN(CC)CC(C)C(=O)/C=C/c1ccc(C)cc1 (stereo not given) | 20.6 µM | 13.4 µM | 2.69 µM | 31.3 µM | 4.26 µM | 3.69 µM | 30.5 µM | 3.43 µM | 12.2 µM | 26.4 µM |  |  |  |  |  |  |  |  |  | 
O=C(/C=C/c1ccccc1O)c1ccc([N+](=O)[O-])cc1 | 40.9 µM | 48.9 µM | 33.4 µM | 46.1 µM | 25.1 µM | 94.4 µM | 35.8 µM | 28.5 µM | 31.2 µM | 33.2 µM |  |  |  |  |  |  |  |  |  | 
CC(C)(C)c1cc(/C=N/NC(=O)c2ccccc2NC(=O)c2cccs2)c(O)c(C(C)(C)C)c1 | 42.5 µM | 17.9 µM | > 100 µM | > 100 µM | 5.97 µM | 46.2 µM | 71.1 µM | 7.64 µM | 14 µM | 15.7 µM | 10.4 µM | 0.796 µM | 0.542 µM | 3 µM | 0.193 µM | 3 µM | 0.916 µM | 0.7 µM | 0.39 µM | 0.269 µM
